For one assay, the target named is Mcl-1 (Homo sapiens (Human), UniProt Q07820). The experiment in a line: Fluorescence polarization anisotropy (FPA) competition assay, FITC-Bak or FITC-Bim BH3 peptide. Type of assay: binding. The settings on record: read-out: Ki for Inhibition of Mcl-1 by FPA assay.
In assay [1] the test system is H929 human cancer cell lines. The experiment in a line: Cellular viability / proliferation (Cell TiterGlo, 72 h). It counts as cell-based. Particulars: Homo sapiens, NCI-H929, 72 h, read-out: GI50 on cellular proliferation of H929 human cancer cell lines, H929 cells, 72 h, Cell TiterGlo, 10% FBS. In short, it runs like this:
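Top dose 50 μM, serially diluted 2-fold, applied one day after seeding (1,000 cells/well, 10% FBS), DMSO below 1%.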
On the technique in general: ATP-based viability assays read luminescence as a measure of living cells.

Sequence of Mcl-1 (Q07820 172-327): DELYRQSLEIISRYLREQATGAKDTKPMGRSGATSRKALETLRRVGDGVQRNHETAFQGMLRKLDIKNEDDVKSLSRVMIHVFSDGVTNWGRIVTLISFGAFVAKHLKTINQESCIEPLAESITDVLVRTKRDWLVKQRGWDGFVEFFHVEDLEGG

For orientation: Ki means the dissociation constant of the complex between target and ligand, obtained from inhibition or displacement. Take `Cc1cc(OCCCc2c3n(c4c(-c5c(C)nn(C)c5C)c(Cl)ccc24)[C@H](C)CN(c2ccc(F)c4c(C(=O)O)cn(C)c24)C3=O)cc(C)c1Cl` [Example 447, (R)-7-(7-Chloro-10-(3-(4-chloro-3,5-dimethylphenoxy)propyl)-4-methyl-1-oxo-6-(1,3,5-trimethyl-1H-pyrazol-4-yl)-3,4-dihydropyrazino[1,2-a]indol-2(1H)-yl)-4-fluoro-1-methyl-1H-indole-3-carboxylic acid]: the Ki on Mcl-1 was below 1 nM. The GI50 in assay [1] amounted to 340 nM.

Turning to `Cc1cc(OCCCc2c3n(c4c(-c5c(C)nc(CN(C)CCN(C)C)nc5C)c(Cl)ccc24)[C@H](C)CN(c2cn(C)c4ccc(C(=O)O)cc24)C3=O)cc(C)c1Cl` [Example 448, (R)-3-(7-Chloro-10-(3-(4-chloro-3,5-dimethylphenoxy)propyl)-6-(2-(((2-(dimethylamino)ethyl)(methyl)amino)methyl)-4,6-dimethylpyrimidin-5-yl)-4-methyl-1-oxo-3,4-dihydropyrazino[1,2-a]indol-2(1H)-yl)-1-methyl-1H-indole-5-carboxylic acid], the Ki on Mcl-1 was found to be 2.2 nM. The GI50 in assay [1] came to 360 nM.

Consider `Cc1cc(OCCCc2c3n(c4c(-c5c(C)nn(C)c5C)c(Cl)ccc24)[C@H](C)CN(c2cc(Cl)cc4c(C(=O)O)cn(C)c24)C3=O)cc(C)c1Cl` [Example 449, (R)-5Chloro-7-(7-chloro-10-(3-(4-chloro-3,5-dimethylphenoxy)propyl)-4-methyl-1-oxo-6-(1,3,5-trimethyl-1H-pyrazol-4-yl)-3,4-dihydropyrazino[1,2-a]indol-2(1H)-yl)-1-methyl-1H-indole-3-carboxylic acid], for which the Ki on Mcl-1 was 2.6 nM. The GI50 in assay [1] came out at 1200 nM.

`Cc1cnc(-c2ccc3c(c2)c(N2C[C@@H](C)n4c(c(CCCOc5cc(C)c(Cl)c(C)c5)c5ccc(Cl)c(-c6c(C)nn(C)c6C)c54)C2=O)cn3C)nc1` [Example 450, (R)-7-Chloro-10-(3-(4-chloro-3,5-dimethylphenoxy)propyl)-4-methyl-2-(1-methyl-5-(5-methylpyrimidin-2-yl)-1H-indol-3-yl)-6-(1,3,5-trimethyl-1H-pyrazol-4-yl)-3,4-dihydropyrazino[1,2-a]indol-1(2H)-one]: the Ki on Mcl-1 was 2.2 nM. In addition, the GI50 in assay [1] is 1100 nM.

Turning to `Cc1cc(OCCCc2c3n(c4c(-c5c(C)nc(CN(C)C)nc5C)c(Cl)ccc24)[C@H](C)CN(c2cn(C)c4ccc(C(=O)O)cc24)C3=O)cc(C)c1Cl` [Example 451, (R)-3-(7-Chloro-10-(3-(4-chloro-3,5-dimethylphenoxy)propyl)-6-(2-((dimethylamino)methyl)-4,6-dimethylpyrimidin-5-yl)-4-methyl-1-oxo-3,4-dihydropyrazino[1,2-a]indol-2(1H)-yl)-1-methyl-1H-indole-5-carboxylic acid], at Mcl-1, the Ki is below 1 nM. Also, in assay [1], the GI50 was below 200 nM.

Consider `Cc1cc(N2C[C@@H](C)n3c(c(CCCOc4cc(C)c(Cl)c(C)c4)c4ccc(Cl)c(-c5c(C)nn(CC6CCOCC6)c5C)c43)C2=O)c2c(c1)cc(C(=O)O)n2C` [Example 452, (R)-7-(7-Chloro-10-(3-(4-chloro-3,5-dimethylphenoxy)propyl)-6-(3,5-dimethyl-1-((tetrahydro-2H-pyran-4-yl)methyl)-1H-pyrazol-4-yl) 4-methyl-1-oxo-3,4-dihydropyrazino[1,2-a]indol-2(1H)-yl)-1,5-dimethyl-1H-indole-2-carboxylic acid], for which the Ki on Mcl-1 worked out at 2.2 nM. Moreover, in assay [1], the GI50 stood at 380 nM.

As for `Cc1cc(OCCCc2c3n(c4c(-c5c(C)nn(C)c5C)c(Cl)ccc24)[C@H](C)CN(c2cc(OCCN4CCN(C)CC4)cc4cc(C(=O)O)n(C)c24)C3=O)cc(C)c1Cl` [Example 453, (R)-7-(7-Chloro-10-(3-(4-chloro-3,5-dimethylphenoxy)propyl)-4-methyl-1-oxo-6-(1,3,5-trimethyl-1H-pyrazol-4-yl)-3,4-dihydropyrazino[1,2-a]indol-2(1H)-yl)-1-methyl-5-(2-(4-methylpiperazin-1-yl)ethoxy)-1H-indole-2-carboxylic acid], the Ki on Mcl-1 is 1.7 nM. Further, in assay [1], the GI50 stood at 330 nM.

Turning to `Cc1cc(OCCCc2c3n(c4c(-c5c(C)nn(C)c5C)c(Cl)ccc24)[C@H](C)CN(c2cn(C)c4ccc(-c5ncn(CC(C)C)n5)cc24)C3=O)cc(C)c1Cl` [Example 454, (R)-7-Chloro-10-(3-(4-chloro-3,5-dimethylphenoxy)propyl)-2-(5-(1-isobutyl-1H-1,2,4-triazol-3-yl)-1-methyl-1H-indol-3-yl)-4-methyl-6-(1,3,5-trimethyl-1H-pyrazol-4-yl)-3,4-dihydropyrazino[1,2-a]indol-1(2H)-one], at Mcl-1, the inhibitory constant (Ki) was determined as 3.5 nM. Further, in assay [1], the GI50 stood at 2100 nM.

Turning to `Cc1cc(OCCCc2c3n(c4c(-c5c(C)nn(C)c5C)c(Cl)ccc24)[C@H](C)CN(c2cc(OCCN(C)C)cc4cc(C(=O)O)n(C)c24)C3=O)cc(C)c1Cl` [Example 455, (R)-7-(7-Chloro-10-(3-(4-chloro-3,5-dimethylphenoxy)propyl)-4-methyl-1-oxo-6-(1,3,5-trimethyl-1H-pyrazol-4-yl)-3,4-dihydropyrazino[1,2-a]indol-2(1H)-yl)-5-(2-(dimethylamino)ethoxy)-1-methyl-1H-indole-2-carboxylic acid], the Ki on Mcl-1 is below 1 nM. For the same compound, the GI50 in assay [1] is 220 nM.

Consider `Cc1ccnc(Cn2c(C(=O)O)cc3cc(C)cc(N4C[C@@H](C)n5c(c(CCCOc6cc(C)c(Cl)c(C)c6)c6ccc(Cl)c(-c7c(C)nn(C)c7C)c65)C4=O)c32)c1` [Example 456, (R)-7-(7-Chloro-10-(3-(4-chloro-3,5-dimethylphenoxy)propyl)-4-methyl-1-oxo-6-(1,3,5-trimethyl-1H-pyrazol-4-yl)-3,4-dihydropyrazino[1,2-a]indol-2(1H)-yl)-5-methyl-1-((4-methylpyridin-2-yl)methyl)-1H-indole-2-carboxylic acid], for which, on Mcl-1, the Ki was below 1 nM. The GI50 in assay [1] is below 200 nM.

For `Cc1cc(N2C[C@@H](C)n3c(c(CCCOc4cc(C)c(Cl)c(C)c4)c4ccc(Cl)c(-c5c(C)nn(C)c5C)c43)C2=O)c2c(c1)cc(C(=O)O)n2Cc1cccc(C)n1` [Example 457, (R)-7-(7-Chloro-10-(3-(4-chloro-3,5-dimethylphenoxy)propyl)-4-methyl-1-oxo-6-(1,3,5-trimethyl-1H-pyrazol-4-yl)-3,4-dihydropyrazino[1,2-a]indol-2(1H)-yl)-5-methyl-1-((6-methylpyridin-2-yl)methyl)-1H-indole-2-carboxylic acid], the Ki on Mcl-1 was below 1 nM. In addition, in assay [1], the GI50 is below 200 nM.

`Cc1cc(OCCCc2c3n(c4c(-c5c(C)nn(C)c5C)c(Cl)ccc24)[C@H](C)CN(c2cc(OCCN4CCOCC4)cc4cc(C(=O)O)n(C)c24)C3=O)cc(C)c1Cl` [Example 458, (R)-7-(7-Chloro-10-(3-(4-chloro-3,5-dimethylphenoxy)propyl)-4-methyl-1-oxo-6-(1,3,5-trimethyl-1H-pyrazol-4-yl)-3,4-dihydropyrazino[1,2-a]indol-2(1H)-yl)-1-methyl-5-(2-morpholinoethoxy)-1H-indole-2-carboxylic acid]: the Ki on Mcl-1 worked out at 1.2 nM. In addition, the GI50 in assay [1] worked out at 290 nM.

`Cc1cc(OCCCc2c3n(c4c(-c5c(C)nn(C)c5C)c(Cl)ccc24)[C@H](C)CN(c2cc(OCC4COC4)cc4cc(C(=O)O)n(C)c24)C3=O)cc(C)c1Cl` [Example 459, (R)-7-(7-Chloro-10-(3-(4-chloro-3,5-dimethylphenoxy)propyl)-4-methyl-1-oxo-6-(1,3,5-trimethyl-1H-pyrazol-4-yl)-3,4-dihydropyrazino[1,2-a]indol-2(1H)-yl)-1-methyl-5-(oxetan-3-ylmethoxy)-1H-indole-2-carboxylic acid]: at Mcl-1, the Ki worked out at 1 nM. Besides, the GI50 in assay [1] is 510 nM.

For the compound `Cc1cc(OCCCc2c3n(c4c(-c5c(C)nn(C)c5C)c(Cl)ccc24)[C@H](C)CN(c2cc(OCCN4CCCC4)cc4cc(C(=O)O)n(C)c24)C3=O)cc(C)c1Cl` [Example 460, (R)-7-(7-Chloro-10-(3-(4-chloro-3,5-dimethylphenoxy)propyl)-4-methyl-1-oxo-6-(1,3,5-trimethyl-1H-pyrazol-4-yl)-3,4-dihydropyrazino[1,2-a]indol-2(1H)-yl)-1-methyl-5-(2-(pyrrolidin-1-yl)ethoxy)-1H-indole-2-carboxylic acid], the Ki on Mcl-1 amounted to 1.7 nM. Also, the GI50 in assay [1] came to 420 nM.

With `COCCOc1cc(N2C[C@@H](C)n3c(c(CCCOc4cc(C)c(Cl)c(C)c4)c4ccc(Cl)c(-c5c(C)nn(C)c5C)c43)C2=O)c2c(c1)cc(C(=O)O)n2C` [Example 461, (R)-7-(7-Chloro-10-(3-(4-chloro-3,5-dimethylphenoxy)propyl)-4-methyl-1-oxo-6-(1,3,5-trimethyl-1H-pyrazol-4-yl)-3,4-dihydropyrazino[1,2-a]indol-2(1H)-yl)-5-(2-methoxyethoxy)-1-methyl-1H-indole-2-carboxylic acid], the Ki on Mcl-1 is below 1 nM. Further, in assay [1], the GI50 was below 200 nM.

`Cc1cc(OCCCc2c3n(c4c(-c5c(C)nn(C)c5C)c(Cl)ccc24)[C@H](C)CN(c2cn(C)c4ccc(-c5ncn(CC6CC6)n5)cc24)C3=O)cc(C)c1Cl` [Example 462, (R)-7-Chloro-10-(3-(4-chloro-3,5-dimethylphenoxy)propyl)-2-(5-(1-(cyclopropylmethyl)-1H-1,2,4-triazol-3-yl)-1-methyl-1H-indol-3-yl)-4-methyl-6-(1,3,5-trimethyl-1H-pyrazol-4-yl)-3,4-dihydropyrazino[1,2-a]indol-1(2H)-one]: the Ki at Mcl-1 stood at 2 nM. The GI50 in assay [1] came out at 990 nM.

The values above are taken from patent publication US11596639B2, “Substituted indole Mcl-1 inhibitors” (Vanderbilt University, priority 2016, dated 2023).
